Non-standard residues stand in square brackets, D forms with d. Residues, ends and D or L forms follow the SMILES beside them. *: point of attachment. Nle = CCCC[C@H](N)C(=O)O; Cbz = O=C(OCc1ccccc1)*
Tests used:
[1] = Toxicity study, single oral dose, 14-day observation; format: in vivo, Wister rats; details: rat, oral 1000 mg/kg
Method: Five-week-old Wister rats (male, body weights 80-105 g) were orally given a 3.3 w/v % suspension of Compound 1 in 0.5 w/v % carboxymethylcellulose in a dose of 1000 mg as Compound 1 per kg body weight. […] Body weights were recorded before dosing and once daily for 14 days after dosing. Autopsy was performed after sacrifice by exsanguination under ether anesthesia after 14 days and the organs were grossly examined. The control group received 0.5 w/v % carboxymethylcellulose.

[2] = system: nerve cells in the hippocampal CA1 region; assay: Effect on ischemic disorder of the brain: bilateral common carotid artery occlusion, nerve cell counts in hippocampal CA1 region; format: in vivo; details: gerbil, 10 min ischemia, 100 mg/kg intraperitoneally 15 min before ischemia, immediately after reperfusion, then once daily, counted 5 days after reperfusion; for ischemia-induced decrease in the number of normal nerve cells in the hippocampal CA1 region: FIG. 1; for ischemia-induced increase in the number of apoptotic nerve cells in the hippocampal CA1 region: FIG. 2
Method: The bilateral common carotid arteries of gerbils (male, body weights 60-80 g) were exposed under ether anesthesia. Then, in a conscious state, the carotid arteries were occluded with aneurysm clips to arrest the blood flow for 10 minutes. Ischemia was confirmed by checking the arrest of retinal blood flow with a blood flow meter (Advance laser flow meter (ALF21N), Advance Co. Ltd.) and observation of ischemic symptoms such as seizure, circling, and ptosis. After removal of the clips, reperfusion was confirmed with the blood flow meter. Five days after reperfusion, the animal was anesthetized with ether and was perfused with saline through the left ventricle for removal of blood and further with 4% formaldehyde for fixation of the brain tissue. The tissue was embedded in paraffin and thin sections were prepared and stained with hematoxylin-eosin in the routine manner. The nerve cells in the hippocampal CA1 region were observed under a light microscope and the normal nerve cells remaining in a 1.0 mm span of the hippocampal CA1 region were counted. Separately, using Apoptosis in situ Detection Kit Wako (Wako Pure Chemical Ind., Ltd.), the apoptosis in the paraffin-embedded brain tissue specimen was detected and using the light microscope, the apoptotic nerve cells per 1.0 mm span of the hippocampal CA1 region were counted.
In the normal group, the common carotid arteries were exposed but no ischemia was introduced. As the test drug, a parenteral suspension prepared as in Example 3 was administered intraperitoneally in a dose of 100 mg Compound 1 per kg body weight 15 minutes before ischemia, immediately after reperfusion, and thereafter once daily (Compound 1 administration group). In the control group and normal group, the vehicle used in Example 3 was similarly administered. As a positive control, Cbz-Val-Phe-H [MDL; S. C. Hong et al., Stroke, 25 (3), 663-669 (1994)], 100 mg/kg body weight, was similarly administered (MDL administration group).

[3] = system: cytopathy due to cerebral ischemia; details: rats, administered intravenously; cited from earlier work
neurons [4] = details: administered intraperitoneally; cited from earlier work
neurons [5] = details: directly administered into the animal cerebral ventricle; cited from earlier work

CC(C)C[C@@H](C=O)NC(=O)[C@@H](NS(=O)(=O)c1ccc(F)cc1)C(C)C [Compound 1, N-(4-fluorophenylsulfonyl)-L-valyl-L-leucinal]
body weight gain versus control group ([1]; 14 days): no difference
autopsy findings versus control group ([1]; autopsy after 14 days): no difference
general condition and behavior ([1]; observed 14 days): no change
ischemia-induced decrease in the number of normal nerve cells in the hippocampal CA1 region [2]: significantly inhibited
ischemia-induced increase in the number of apoptotic nerve cells in the hippocampal CA1 region [2]: significantly inhibited

CC(C)[C@H](NC(=O)OCc1ccccc1)C(=O)N[C@H](C=O)Cc1ccccc1 [MDL, Cbz-Val-Phe-H] (Cbz-Val-Phe-aldehyde)
cytopathy due to cerebral ischemia [3]: inhibited cytopathy
ischemia-induced decrease in the number of normal nerve cells in the hippocampal CA1 region [2]: little inhibitory effect
ischemia-induced increase in the number of apoptotic nerve cells in the hippocampal CA1 region [2]: little inhibitory effect

CCCC[C@@H](C=O)NC(=O)[C@H](CC(C)C)NC(=O)[C@H](CC(C)C)NC(C)=O [calpain inhibitor I] (Ac-Leu-Leu-[Nle]-aldehyde)
protection of neurons from excitotoxic factors (neurons [4]): protect neurons from excitotoxic factors

CC(=O)N[C@@H](CC(C)C)C(=O)N[C@@H](CC(C)C)C(=O)N[C@H](C=O)CCCNC(=N)N [leupeptin]
protection of neurons against damage by cerebral ischemia (neurons [5]): protects neurons against damage
